The source of these data is patent US6469141B1, “D1-like dopamine receptor activity modifying protein” (Medical College of Georgia Research Institute Inc., priority 1998, dated 2002).

The subject of one assay is protein kinase C (PKC). As to the kind of experiment: 32P-orthophosphate in vivo labeling and GFP mab immunoprecipitation of EGFP-Calcyon. The class given is cell-based, human. Particulars: 100 nM PMA, 0.5 h. As to the method: Approximately 40 h after transfection, pEGFP or pEGFP-Calcyon transfected D1 HEK293 cells were washed and placed in HBS (phosphate-free media) for 1.5 h prior to addition of [^32P] orthophosphate (135 μCi/ml). 2 h later, cells were treated with 100 nM PMA (Phorbol 12-Myristate 13-Acetate) in HBS for 0.5 h at 37°. Cells were then washed once in cold PBS and solubilized in mild lysis solution (Cytosignal, Irvine, Calif.) containing protease inhibitor cocktail (Boehringer Manheim) and phosphatase inhibitors, 50 μM NaF and 5 μM EGTA. Lysates were centrifuged for 5 min at 14,000 rpm and the supernatant was incubated at RT. for 1 h with mouse anti-GFP mab (Clontech, Palo Alto, Calif.) (diluted 1:100), followed by 0.02 volume of protein A/G agarose slurry for 30 min. The resin was washed twice with mild lysis solution, and adsorbed proteins eluted in SDS PAGE loading buffer (Laemmli, U.K., Nature 227:680-5 (1970)). Samples were analyzed by SDS-PAGE, using a 15% gel (Bio-Rad). The gel was dried and visualized using a Phosphorimager SF (Molecular Dynamics). […]
The Calcyon sequence contains two consensus protein kinase C (PKC) phosphorylation sites within its predicted cytoplasmic domain. […] GFP mab immunoprecipated a ^32P-labeled protein from pEGFP-Calcyon transfected cells with size equal to that detected by Calcyon antibodies. […]

For assay [1], the target named is T1, hD1 receptors (Homo sapiens, UniProt P21728).
T1 construct: pLXSN (Clontech) plasmid containing full-length human D1 (Zhou et al., Nature 347:76-80 (1990)); expressed in transfected cells
T1 sequence (P21728 whole entry): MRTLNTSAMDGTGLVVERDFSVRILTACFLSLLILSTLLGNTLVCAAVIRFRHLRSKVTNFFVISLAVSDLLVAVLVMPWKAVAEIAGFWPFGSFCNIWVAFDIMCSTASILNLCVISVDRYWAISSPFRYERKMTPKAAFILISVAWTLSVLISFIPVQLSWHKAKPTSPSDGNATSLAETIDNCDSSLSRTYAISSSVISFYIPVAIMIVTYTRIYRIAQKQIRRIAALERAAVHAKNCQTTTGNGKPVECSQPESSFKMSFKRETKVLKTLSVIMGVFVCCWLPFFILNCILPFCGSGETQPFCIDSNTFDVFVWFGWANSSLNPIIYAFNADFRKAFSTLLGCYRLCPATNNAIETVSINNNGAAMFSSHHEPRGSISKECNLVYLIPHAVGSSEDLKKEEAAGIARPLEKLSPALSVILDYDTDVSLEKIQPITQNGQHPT
The assay is described as follows: cAMP assay in transfected D1 HEK293 cells. The assay is classed as cell-based. Here is the method:
Following centrifugation to pellet proteins, cAMP levels in supernatant were determined by Direct cAMP Enzyme Immunoassay Kit (Assay Designs, Inc.) according to the supplier's protocol. […] Results (pmol cAMP/mg protein) are reported as average of three independent trans fection experiments.
It was determined whether Calcyon influenced D1 receptor coupling to the cAMP second messenger system in D1 HEK293 cells transfcctcd with expression plasmids encoding either enhanced green fluorescent protein (EGFP), or Calcyon tagged at its N-terminus by EGFP.
(§1) pEGFP-Calcyon was created by inserting a 0.9 kb Eco RI-Xho I fragment encoding full-length Calcyon into pEGFP-C3 (Clontech). pEGFP-C3 and pEGFP-Calcyon plasmid DNAs were transiently transfected into HEK293 and D1 HEK293 cell lines using Effectene™ (Qiagen) according to manufacturer's recommendations. 2.5×10^5 cells were seeded in 6-well plates, and transfected with 0.4:g plasmid DNA/well for Ca^++ imaging, cAMP, and immunoprecipitation assays.
(Changes in cAMP serve as a functional read-out for many G protein-coupled receptors.)

Assay [2] addresses T1, hD1 receptors. As to the kind of experiment: Fura-2 Ca++ imaging of D1 receptor-stimulated Ca++i release in D1 HEK293 cells. The assay is classed as cell-based. The settings on record: for effect of PKC inhibitor on SKF81297-induced Ca++ mobilization: EGFP-Calcyon expressing D1 HEK293 cells, HCl. As to the method:
For Ca^++ imaging, cells were rinsed with HBS (150 mM NaCl, 10 mM NaHEPES, 10 mM glucose, 2.5 mM KCI, 4 mM CaCl2 and 2 mM MgCl2, pH 7.4) and then loaded with 5 μM Fura-2 AM (Molecular Probes) in HBS at RT. After 20 min, cells were washed three times with HBS. Assays were performed at RT in 1.5 ml of HBS. Drugs were prepared in HBS and manually applied. […] Images were collected with a CCD camera connected to a Silicon Graphics workstation, and analyzed with Inovision-Ratiotool 4.3.5. Transfected cells were identified by illumination at 490 nm, and selected as areas for analysis. […] Fluorescence emission at 510 nm was monitored for each excitation wavelength via the CCD camera at 10 s intervals. Average pixel intensities within 6-8 selected areas (each area corresponded to single transfected cell) for both wavelengths at each time point were digitized and stored on the computer.
Changes in Ca^++i levels were measured using ratiofluorometric imaging following bath application of ligand. […] In vivo, DA is considered primarily to be a neuromodulator. Therefore, to test whether Calcyon plays a role in the D1 receptor's ability to modulate other stimuli, we applied agonists of endogenous GPCRs prior to stimulating D1 receptors.
as §1

The target of assay [3] is T2, GSTD1 (C-terminal 81 residues of hD1 receptor) (Homo sapiens, UniProt P21728).
T2 construct: C-terminal 81 amino acids of the hD1 receptor (residues 365-446); made in house; host or cells: S-Calcyon: BL21(DE3) E. coli
T2 sequence (P21728 365-446): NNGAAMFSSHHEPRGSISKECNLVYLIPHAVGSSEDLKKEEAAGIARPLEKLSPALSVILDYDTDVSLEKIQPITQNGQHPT
T2 sequence (Q9NYX4 93-217 partner): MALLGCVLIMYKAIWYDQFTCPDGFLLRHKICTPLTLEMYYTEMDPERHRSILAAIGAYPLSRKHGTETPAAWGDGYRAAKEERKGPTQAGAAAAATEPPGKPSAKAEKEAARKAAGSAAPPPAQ
The assay is described as follows: S-agarose pull-down assay with GSTD1 fusion protein. The assay is classed as binding. The settings on record: immunoblot with D1 receptor antibodies. The text has this: For pull-down assays, a 550 bp Nco I-Bgl II fragment from pACT-Calcyon was subcloned into pET30a (Novagen, Madison, Wis.) to produce the S-Calcyon fusion protein containing residues 93-217 of the predicted Calcyon protein as well as an N-terminal tag composed of the 15 residue S peptide of ribonuclease S (Richards, F. M., et al., The Enzymes. ed.: Boyer, P. D., Academic Press, N.Y., pp. 647-806 (1971)). The S-β-galactosidase fusion protein was composed of bacterial β-galactosidase protein tagged at its N-terminus with the S peptide. Fusion proteins were induced in BL2I(DE3) E. coli with IPTG, and coupled to S-agarose resin (Novagen, Madison, Wis.) by incubating soluble fractions of bacterial lysates with resin for 1 h at RT Following incubation, unbound proteins were eliminated by washing the resin three times in 50 volumes of 25 mM HEPES (pH 7.4), 50 mM NaCl. Interaction assays were performed with GSTD1 purified as described (Bergson, C., et al., J. Neurosci. 15:7821-36 (1995)) or solubilized lysates of D1 HEK293 cells in 25 mM HEPES (pH 7.4), 50 mM NaCl, 10% glycerol, 1% bovine serum albumin containing 0.5% NP-40. Peptidel 421-435 ([…]) (SEQ ID No. 3) and Peptide2 ([…]) (SEQ ID No. 4) were synthesized using an Applied Biosystems 430A Peptide Synthesizer using the FastMoc procedures and reagents supplied by Perkin-Elmer, Applied Biosystems division. […]
In general terms: In western blotting, separated proteins are transferred to a membrane and probed.

Assay [4] has as its system endogenous P2Y purinergic receptors. The assay is described as follows: Fura-2 Ca++ imaging, P2Y receptor-stimulated Ca++i release in D1 HEK293 cells. The assay is classed as cell-based, human. Here is the method: Drugs were prepared in HBS and manually applied.
Changes in Ca^++i levels were measured using ratiofluorometric imaging following bath application of ligand. Application of DA or 10:M […] produced no detectable response in untransfected D1 HEK293 cells, or cells expressing either EGFP or EGFP-Calcyon. In vivo, DA is considered primarily to be a neuromodulator. Therefore, to test whether Calcyon plays a role in the D1 receptor's ability to modulate other stimuli, we applied agonists of endogenous GPCRs prior to stimulating D1 receptors. […].

A further assay deals with D1 receptor (Homo sapiens, UniProt P21728). As to the kind of experiment: D1 receptor response to dopamine in presence of P24. The settings on record: effect of P24.
Chain of D1 receptor (P21728 whole entry): as the sequence (P21728 whole entry) above
The next assay addresses T3, D1 DA receptors (Homo sapiens, UniProt P21728).
T3 construct: pLXSN (Clontech) plasmid containing full-length human D1 (Zhou et al., Nature 347:76-80 (1990)); expressed in transfected cells; host or cells: D1-HEK293 cells, transiently transfected with pEGFP-P24
The assay is described as follows: co-immunoprecipitation with GFP mab from transfected D1-HEK293 cells. The assay is classed as binding. The text has this: A series of experiments were then undertaken to functionally characterize the interaction between P24 and D1 receptor proteins. D1-HEK293 cells, a HEK293 cell line that expresses hD1 receptors, and pEGFP-P24 expression plasmid were used for these studies. pEGFP-P24 encodes P24 protein tagged at its N-terminus by enhanced green fluorescent protein (EGFP). The N-terminal EGFP tag allowed testing to determine whether P24 directly associates with D1 DA receptors when coexpressed in mammalian cells in a “pull-down” assay. D1 receptors co-immunoprecipitated with EGFP-P24 fusion protein transiently expressed in transfected D1-HEK293 cells, and were “pulled down” by GFP mab.

T3 sequence (P21728 whole entry): as the sequence (P21728 whole entry) above

In the case of `CCCCCCCCCCCCCC(=O)O[C@@H]1[C@@H](C)[C@@]2(O)[C@@H](C=C(CO)C[C@]3(O)C(=O)C(C)=C[C@@H]23)[C@@H]2C(C)(C)[C@]12OC(C)=O` [PMA, phorbol 12-myristate 13-acetate], the “32P label incorporated into immunoprecipitated EGFP-Calcyon, treated vs untreated cells” value in the assay with protein kinase C (PKC) is on record as “approximately five times more label incorporated”.
`CN(C)CCCn1cc(C2=C(c3c[nH]c4ccccc34)C(=O)NC2=O)c2ccccc21.Cl` [bisindolylmaleimide I HCl]: the “cAMP levels stimulated by ATP and SKF81297, BisI-treated compared to untreated cells” value on hD1 receptors [1] is “similar”. The “effect of PKC inhibitor on SKF81297-induced Ca++ mobilization” value on hD1 receptors [2] is “considerably attenuated”; at hD1 receptors [2] (listed as bisindolylmalemide), “inhibits Calcyon-enabled D1 stimulated Cai^++ release”. For the same molecule, the “effect of PKC inhibitor on D1 receptor-stimulated Ca++i release” value on hD1 receptors [2] (EGFP-Calcyon expressing cells treated with carbachol) is listed as “reduced D1 receptor-stimulated Ca^++i release”.
As to “SVILDYDTDVSLEKI (listed as Homo sapiens) [Pep421-435]”, the “block of interaction between GSTD1 and S-Calcyon by peptide” value in assay [3] is listed as “prevented detection of the immunoreactive GSTD1 band”.
Regarding `Nc1ncnc2c1ncn2[C@@H]1O[C@H](COP(=O)(O)OP(=O)(O)OP(=O)(O)O)[C@@H](O)[C@H]1O` [ATP], the “Ca++i response” value in assay [4] (D1 HEK293 cells) is recorded as “produced a rise in Ca^++i”. The “duration of P2Y receptor Ca++i response” value is 300 to 400 s in assay [4] (EGFP expressing cells) and 300 to 400 s in assay [4] (EGFP-Calcyon expressing cells, following application of BisI).

B1: Calcyon: 217 residue single transmembrane protein encoded by K 37 cDNA (SEQ ID No. 1) that interacts with the hD1 DA receptor (protein)
chain: MVKLGCSFSGKPGKDPGDQDGAAMDSVPLISPLDISQLQPPLPDQVVIKTQTEYQLSSPDQQNFPDLEGQRLNCSHPEEGRRLPTARMIAFAMALLGCVLIMYKAIWYDQFTCPDGFLLRHKICTPLTLEMYYTEMDPERHRSILAAIGAYPLSRKHGTETPAAWGDGYRAAKEERKGPTQAGAAAAATEPPGKPSAKAEKEAARKAAGSAAPPPAQ
modifications: D1-Like dopamine receptor activity modifying protein
As to B1, the “threshold of D1 receptor response to dopamine” value with D1 receptor is “lowers the threshold of D1 receptor response to dopamine (DA) by an order of magnitude”. Further, in the assay with hD1 receptors [1] (DA-stimulated cAMP, EGFP vs EGFP-Calcyon cells), the “effect of Calcyon expression on D1 receptor-stimulated cAMP” value is “does not alter D1 receptor activation of cAMP-dependent signaling pathways”. Further, in the assay with hD1 receptors [2] (EGFP-Calcyon vs EGFP expressing cells, D1 agonist after ATP), the “effect of Calcyon expression on D1 receptor-stimulated Ca++i mobilization” value is “enhance the ability of D1 receptors to mobilize Ca^++i”.

B2: EGFP-P24: P24 protein tagged at its N-terminus by enhanced green fluorescent protein (protein)
chain: B1 chain
modifications: left off: large carriers
Take B2: the “co-immunoprecipitation of D1 receptors” value in the assay with D1 DA receptors is given as “co-immunoprecipitated”.
